Among the data in ChEMBL document CHEMBL5441142, “Probing the Merck KGaA Open Global health library for novel starting points for anti-schistosomal drug discovery” (2024) are In vitro activity values, retold here.

The source made the active and inactive calls. The rule behind the calls is not given here.

The assay deals with Schistosoma mansoni. The assay can be described thus: In vitro activity screen on S. mansoni schistosomula at 10 uM. Compound-induced effects were assessed by quantifying larva motility and phenotype using Roboworm. Conditions: Puerto Rican. Also noted: test concentration 10 uM, temperature 37 degree C, time incubation 72 h. Type of assay: functional, organism-based.
As to `COc1cc(OC)c(CCNC(=O)c2ccc3nc(-c4cc(OC)ccc4OC)cn3c2)c(OC)c1`, the In vitro activity result is “inactive”. For the molecule `COc1ccc(C2=NN(C(=O)c3ccc(NC(=O)c4cccnc4)cc3)CCC2)cc1OC1CCCC1`, the In vitro activity entry was “inactive”. In the case of `COCc1cc(-c2nc(-c3ccc(CN(C)CC(=O)O)c(F)c3)no2)ccc1-c1ccccc1F` it was “inactive”; in that of `Cn1nc(O[C@@H]2c3cc(C#N)ccc3OC(C)(C)[C@H]2O)ccc1=O`, “inactive”. With `CCOc1cc(-c2nc(-c3ccc(CN(C)CC(=O)O)cc3)no2)ccc1-c1ccccc1C` the entry was “inactive”; with `CC1=C(C(=O)N2CCc3ncc(C(F)(F)F)cc3C2)C2(CCN(C3CCCCC3)CC2)OC1=O`, “inactive”. In the case of `CS(=O)(=O)c1cccc(-c2ccc(Cn3cc(C(=O)O)c(=O)c4cccc(F)c43)cn2)c1` it was “inactive”. As to `O=C(O)Cc1ccc(-c2nc(NCc3ccc4c(c3)OCO4)c3c4c(sc3n2)CCCC4)cc1`, the In vitro activity entry was “inactive”.

With `CCCc1nn(C)c2c(=O)[nH]c(-c3cc(S(=O)(=O)Oc4ccc(=O)n(C)n4)ccc3OCC)nc12`, the In vitro activity entry is “inactive”. Consider `CCCCC[C@H](O)/C=C/[C@H]1CCC(=O)N1CCc1ccc(C(=O)O)cc1`, for which the In vitro activity entry was “inactive”. Consider `CCOc1cc(-c2nc(-c3ccc(CN(C)CC(=O)O)c(F)c3)no2)ccc1-c1ccccc1C`, for which the In vitro activity result is “inactive”. In the case of `COCc1cc(-c2nc(-c3cc(F)cc(CN(C)CCC(=O)O)c3)no2)ccc1-c1ccccc1C` it was “inactive”; in that of `CCN(CCC(=O)O)Cc1cccc(-c2noc(-c3ccc(-c4ccccc4F)c(COC)c3)n2)c1`, “inactive”; in that of `CCCc1nn(C)c2c(=O)[nH]c(-c3cc(S(=O)(=O)Oc4cccnc4)ccc3OCC)nc12`, “inactive”.

As for `O=C(O)c1cn(Cc2ccc(-c3ccccc3)cc2)c2ccccc2c1=O`, the In vitro activity entry was “inactive”.

With `COCCCN1CCC2(CC1)OC(=O)C(C)=C2C(=O)N1CCc2ccc(C(F)(F)F)cc2C1`, the In vitro activity entry was “inactive”.

For `O=C(O)c1ccc(CCN2C(=O)CCN2CCC(O)Cc2cccc(Br)c2)cc1` (stereo not drawn), the In vitro activity entry was “inactive”. In the case of `COc1ccc(CNc2nc(CCCCC(=O)O)nc3sc4c(c23)CCCC4)cc1Cl`, the In vitro activity result was “inactive”. `O=C(O)CC1CCN(c2nc(NCc3ccc4c(c3)OCO4)c3c4c(sc3n2)CCCC4)CC1`: the In vitro activity result was “inactive”. In the case of `Cc1cc(C2CCC2)c(S(C)(=O)=O)cc1C(=O)N=C(N)N` it was “inactive”; in that of `COc1ccc(CNc2nc(CCCC(=O)O)nc3oc4c(c23)CCCC4)cc1Cl`, “inactive”.

Take `Cc1cc(Nc2ccccn2)c(S(C)(=O)=O)cc1C(=O)N=C(N)N`: the In vitro activity result was “inactive”. In the case of `Cc1cc(C(=O)C(C)SN2C(=O)c3ccccc3C2=O)ccc1O` (stereo not drawn), the In vitro activity result was “inactive”. For the molecule `COC(=O)c1cc(C(=O)N=C(N)N)c(C)cc1C`, the In vitro activity result was “inactive”. With `COc1cc(NC(=O)c2cn(Cc3ccc(Cl)cc3)nn2)ccc1-n1cnc(C)c1` the entry was “inactive”. In the case of `CC/N=C(\c1ccc(OC)c(OC)c1)N1CCCc2cc(C3=NNC(=O)SC3C)ccc21` (stereo not drawn) it was “inactive”.

For the molecule `CCOc1cc(CCC(=O)NC[C@H]2S[C@@H](c3ccc(C#Cc4ccccc4)cc3)N(c3cccc(C(N)=O)c3)C2=O)ccc1OC`, the In vitro activity entry is “inactive”. In the case of `Cc1ccc(-c2ccccc2)cc1C(=O)N=C(N)N` it was “inactive”; in that of `CC1=C(C(=O)N2CCc3ccc(C(F)(F)F)cc3C2)C2(CCN(C3CCC(O)CC3)CC2)OC1=O` (stereo not drawn), “inactive”; in that of `CC1=C(C(=O)N2CCc3ncc(C(F)(F)F)cc3C2)C2(CCN(C3CCCC3)CC2)OC1=O`, “inactive”. Regarding `CCCCc1nc2ccn(Cc3ccccc3C(=O)O)c(=O)c2n1Cc1ccc(-c2ccccc2-c2nn[nH]n2)cc1`, the In vitro activity result was “inactive”. In the case of `CCCCCCN(Cc1ccc(C#Cc2ccc(CCCC)cc2)cc1)c1ccc(O)c(C(=O)O)c1` it was “inactive”. For `CC1=C(C(=O)N2CCc3ncc(C(F)(F)F)cc3C2)C2(CCN(CC3CCOC3)CC2)OC1=O` (stereo not drawn), the In vitro activity entry was “inactive”. Consider `CCOC(=O)CC1=NN(c2ccc(C(=O)O)cc2)C(=O)/C1=C\Nc1ccccc1CC`, for which the In vitro activity result is “inactive”. Consider `O=C(O)c1cn(Cc2ccc(-n3cccn3)cc2)c2c(F)ccc(F)c2c1=O`, for which the In vitro activity entry is “inactive”. With `COc1ccc(C(=O)N2CCCc3cc(C4=NNC(=O)SC4C)ccc32)cc1OC` (stereo not drawn), the In vitro activity result was “inactive”. With `COc1ccc(OCC(=O)O)cc1-c1cn2cc(C(=O)NCCc3c(OC)cccc3OC)sc2n1` the entry was “inactive”.

As for `COCc1cc(-c2nc(-c3cccc(CN(C)CCC(=O)O)c3)no2)ccc1N1CCCCC1C` (stereo not drawn), the In vitro activity result was “inactive”.

With `CCc1cc2c(NCc3ccc(OC)c(Cl)c3)nc(-c3ccc(C(=O)O)cc3)nc2s1`, the In vitro activity entry was “inactive”. With `COc1cc(SCCO)ccc1-c1nc2ccncc2[nH]1` the entry was “inactive”; with `Oc1ccc2[nH]cc(CCCCN3CC=C(c4ccccc4)CC3)c2c1`, “inactive”. In the case of `CC1=C(C(=O)N2CCc3ccc(C(F)(F)F)cc3C2)C2(CCN(C(C)(C)C)CC2)OC1=O` it was “inactive”; in that of `CCc1ccccc1N/C=C1\C(=O)N(c2ccc(S(=O)(=O)O)cc2)N=C1C`, “inactive”; in that of `CCN1CCC2(CC1)OC(=O)C(C)=C2C(=O)N1CCc2ccc(C(F)(F)F)cc2C1`, “inactive”. Turning to `COc1ccc(OC)c(-c2cn3cc(C(=O)NCCc4cc(OC)c5c(c4OC)OCO5)sc3n2)c1`, the In vitro activity result was “inactive”. With `O=c1nc(Nc2cccc(Oc3ccncc3)c2)[nH]c2ccccc12` the entry was “inactive”; with `COCc1cc(-c2nc(-c3cccc(CN(C)CC(=O)O)c3)no2)ccc1-c1ccccc1`, “inactive”; with `COc1cc(C(=O)N(C)C)ccc1-c1cc2nccc(-c3ccc4ccncc4c3)c2o1`, “inactive”. Take `CC1=C(C(=O)N2CCc3ncc(C(F)(F)F)cc3C2)C2(CCN(C3CCc4ccccc43)CC2)OC1=O` (stereo not drawn): the In vitro activity result was “inactive”. Take `CCCCc1nc2ccn(Cc3ccccc3C(=O)OCC)c(=O)c2n1Cc1ccc(-c2ccccc2-c2nn[nH]n2)cc1`: the In vitro activity result is “inactive”. With `COCc1cc(-c2nc(-c3ccc(CN(C)CC(=O)O)c(F)c3)no2)ccc1-c1ccccc1C` the entry was “inactive”; with `CCCN1CCC2(CC1)OC(=O)C(C)=C2C(=O)N1CCc2ccc(C(F)(F)F)cc2C1`, “inactive”.

`COc1ccc(OC)c(-c2cn3cc(C(=O)NCCc4cccc(OC)c4OC)ccc3n2)c1`: the In vitro activity result is “inactive”. With `CC1=C(C(=O)N2Cc3cc(C(F)(F)F)ccc3C3(CC3)C2)C2(CCN(C3CCOCC3)CC2)OC1=O` the entry was “inactive”; with `O=C(O)c1ccc2[nH]cc(CCCCN3CC=C(c4ccccc4)CC3)c2c1`, “inactive”. With `CCC(C)[S+]([O-])c1ccc(-c2nc3ccncc3[nH]2)c(OC)c1` (stereo not drawn) the entry was “inactive”; with `Cc1cc(OC(F)(F)F)c(S(C)(=O)=O)cc1C(=O)N=C(N)N`, “inactive”. In the case of `COc1cc([S+]([O-])Cc2ccccc2)ccc1-c1nc2ccncc2[nH]1` (stereo not drawn) it was “inactive”; in that of `COc1cc(OC)c(CCNC(=O)c2cn3cc(-c4cc(OCC(=O)O)ccc4OC)nc3s2)c(OC)c1`, “inactive”; in that of `COc1ccc(CNc2nc(-c3ccc(C(=O)O)cc3)nc3sc4c(c23)CCCC4)cc1Cl`, “inactive”.

In the case of `CCc1cc(C)c(C(=O)N=C(N)N)cc1S(C)(=O)=O`, the In vitro activity result was “inactive”. With `COc1ccc(CNc2nc([C@H]3CC[C@H](C(=O)O)CC3)nc3sc4ccccc4c23)cc1Cl` the entry was “inactive”; with `CCCN1CCC2(CC1)OC(=O)C(C)=C2C(=O)N1CCc2ncc(C(F)(F)F)cc2C1`, “inactive”.

With `Cc1cc(C(C)C)c(S(C)(=O)=O)cc1C(=O)N=C(N)N`, the In vitro activity entry is “inactive”. In the case of `CCCCCCN(Cc1ccc(C#Cc2ccc(CCCC)cc2)cc1)c1ccc(F)c(C(=O)O)c1` it was “inactive”. In the case of `COc1cc(C(=O)Nc2cn(Cc3ccc4ccccc4c3)nn2)ccc1-n1cnc(C)c1` it was “inactive”; in that of `CN(CCCCc1ccc(F)cc1)CCC(=O)c1ccc2[nH]c(=O)oc2c1`, “inactive”. For the molecule `CCCCc1nc2ccn(CC(=O)N3CCCCC3)c(=O)c2n1Cc1ccc(-c2ccccc2S(=O)(=O)NC(=O)OCc2ccccc2)cc1F`, the In vitro activity entry is “inactive”. As for `CCCc1nn(C)c2c(=O)[nH]c(-c3cc(S(=O)(=O)Oc4ccccn4)ccc3OCC)nc12`, the In vitro activity entry is “inactive”. With `COc1cc(Nc2nccn3nc(Nc4cccc(C(F)(F)F)c4)nc23)cc(OC)c1` the entry was “inactive”; with `COc1cc(OC)cc(-c2cn3cc(C(=O)NCCc4c(OC)cc(OC)cc4OC)sc3n2)c1`, “inactive”. Regarding `COCc1cc(-c2nc(-c3cc(F)cc(CN(C)CC(=O)O)c3)no2)ccc1-c1ccccc1C`, the In vitro activity entry is “inactive”. With `CCCc1cc(C)c(C(=O)N=C(N)N)cc1S(C)(=O)=O`, the In vitro activity result was “inactive”. On to `CNC(=O)c1cc(Oc2ccc(NC(=O)Nc3cc(C(F)(F)F)ccc3-n3ccnc3)cc2)ccn1`, for which the In vitro activity entry is “inactive”.

As to `CCc1cc(Oc2cccnc2)c(S(C)(=O)=O)cc1C(=O)N=C(N)N`, the In vitro activity result is “inactive”.

As for `Cc1cc(Cl)c(-n2cccc2)cc1C(=O)N=C(N)N`, the In vitro activity result is “inactive”.

Regarding `Cc1cc2c(cc1C(=O)N=C(N)N)S(=O)(=O)CCC2C` (stereo not drawn), the In vitro activity entry is “inactive”. With `COc1ccc(CNc2nc(CCCCC(=O)O)nc3sc4ccccc4c23)cc1Cl` the entry was “inactive”.
